We go through 4 molecules from publication PMC4906375, “Contribution of Amphipathicity and Hydrophobicity to the Antimicrobial Activity and Cytotoxicity of β-Hairpin Peptides” (ACS Infectious Diseases, 2016).

Molecules are shown by their SMILES. ≈ marks a conversion by molar mass, not a printed value. Residues, ends and D or L forms follow the SMILES beside them.

The subject of one data set is human erythrocytes. Particulars: red cells of human, 3 h.
Data set [1] is described as follows: Plasma protein binding, ultrafiltration. Particulars: 100% human plasma, read-out: PPB (%) (converted). Format: in vitro ADME. The method, then: Plasma protein binding was performed using an ultrafiltration method.[58]
Plasma protein binding assay
Plasma protein binding was performed using an Ultrafiltration method.13 Fresh frozen human plasma was pooled from O Negative (Product number 1274512) blood from the R & D division of the Australian Red Cross Blood Services (Brisbane). Stock solutions (20 mg/mL) of the test compounds were prepared in H2O. Test compounds (40 µg/mL) were incubated in 100 % human plasma at 37 °C for 30 min (1 mL volume). For unfiltered samples, an aliquot (50 µL) was removed, diluted with PBS (50 µL) and quenched with icePcold precipitating solution comprising 0.5 µM carbutamide MS internal standard in acetonitrile : methanol : formic acid (1: 1 : 0.001). Samples were incubated at 4 °C for 30 min then centrifuged at 14000 × g for 8 min, with the clear supernatant transferred to a vial for LC/MS/MS analysis.
For filtered samples, the plasma sample (250 µL) was filtered using Amicon UltraP0.5 Centrifugal Filter Devices 30K NMWL at 14000 × g for 7 min and then an aliquot (50 µL) was processed as described for unfiltered samples. The fraction of unbound compound was calculated by determining the concentration of the filtered sample and the concentration of unfiltered sample. All samples were performed in triplicate with sulfamethoxazole as a […]

The test system of data set [2] is C. neoformans ATCC 208821. The data set is described as follows: microbe, parasite or virus in culture. Format: cell-based, Cryptococcus neoformans. The method, then: Both antibacterial and antifungal MIC assays were performed by a broth microdilution plate based method as per CLSI guidelines for antimicrobial susceptibility testing.[53],[54] […] Full assay details are included in the Supporting Information with a full list of strains tested in Table S1.
Antibacterial assay (Minimum Inhibitory Concentration [MIC]).
MIC assay was performed by a broth microdilution plate based method as per CLSI guidelines for antimicrobial susceptibility testing of aerobic bacteria.1 Compounds were prepared at 1.28 mg/mL solution in water. The tested strains, Table S1, were cultured in Luria broth (LB) (In Vitro Technologies, USB75852), at 37 °C overnight. A sample of culture was then diluted 40Pfold in fresh Muller Hinton broth (MHB) (Bacto laboratories, 211443) and incubated at 37 °C for 1.5P2 h. The compounds were serially diluted twoPfold across the wells, with compound concentrations ranging from 0.015 µg/mL to 512 µg/mL, plated in duplicate. The resultant midPlog phase cultures were diluted to the final concentration of 1×10^6 CFU/mL, then 50 µL was added to each well of the compoundP containing 96Pwell plates (Corning 3641, NonPbinding Surface [NBS]), giving a final compound concentration range of 0.008 µg/mL to 256 µg/mL and 5x10^5 CFU/mL. All the plates were covered and incubated at 37 °C for 18 h. MICs were determined visually, being defined as the lowest concentration showing no visible growth. Resazurin was added at 0.001% final concentration to each well and incubated for 2 h before MICs were rePread for confirmation using the colour change from blue to pink to indicate wells containing viable cells. The resazurin assay was added in some wells where some form of precipitate was present in otherwise clear wells, making it difficult to ascertain which wells had visible […]
Antifungal assay (Minimum Inhibitory Concentration [MIC]). MIC assay was performed by a broth microdilution plate based method as per CLSI guidelines for antimicrobial susceptibility testing.2 Fungi strains, Table S1, were cultured for 3 days on Yeast ExtractPPeptone Dextrose (YPD) (SigmaPAldrich, Y1500) agar at 30 °C. A yeast suspension of 1x10^6 to 5x10^6 CFU/mL was prepared from five colonies. These stock suspensions were diluted with Yeast Nitrogen Base (YNB) (Becton Dickinson, 233520) broth to a final concentration of 2.5 ×10^3 CFU/mL. All samples, compounds and standards were plated in 96Pwell plates (Corning 3641, NonPbinding Surface [NBS]), by adding 10 µL of 1.28 mg/mL stock solution to each well and 90 µL of media. Then, the samples were serial diluted (1:2) in 12 concentrations across the plate. The standard antifungal ranged from 256 […]
µg/mL to 0.12 µg/mL and compounds from 128 µg/mL to 0.06 µg/mL with final volumes of 50 µL per well, plated in duplicate. Then, 50 µL of the fungi suspension that was previously prepared in YNB broth to the final concentration of 2.5×10^3 CFU/mL, was added to each well of the compoundPcontaining plates, giving a final standard compound concentration range of 128 µg/mL to 0.06 µg/mL and tested compound from 64 µg/mL to 0.03 µg/mL. Plates were covered and incubated at 35 °C for 24 h. Candida albicans MICs were determined by measuring the absorbance at OD530. For Cryptococcus neoformans 10 µL of 0.06 % resazurin were added to the 24 h incubated plates. Then, these plates were incubated for another 3 h.
Cryptococcus neoformans MICs were determined by measuring the absorbance at OD570P600. […]

For the molecule `CC(C)[C@@H]1NC(=O)CNC(=O)[C@H](CC(N)=O)NC(=O)[C@H](CCCNC(=N)N)NC(=O)[C@H](Cc2ccc(O)cc2)NC(=O)[C@H](C(C)C)NC(=O)[C@@H]2CSSC[C@H](NC(=O)[C@H](C(C)C)NC(=O)[C@H](CCCNC(=N)N)NC1=O)C(=O)N[C@@H](Cc1ccc(O)cc1)C(=O)N[C@@H](CCCNC(=N)N)C(=O)N[C@@H](CCCNC(=N)N)C(=O)N[C@H](C(=O)N[C@@H](CC(N)=O)C(=O)O)CSSC[C@H](NC(=O)[C@H](Cc1ccccc1)NC(=O)CN)C(=O)N[C@@H](Cc1c[nH]c3ccccc13)C(=O)N[C@@H](Cc1ccc(O)cc1)C(=O)N[C@@H](C(C)C)C(=O)N2` [arenicin-3] (HELM PEPTIDE1{G.F.C.W.Y.V.C.V.Y.R.N.G.V.R.V.C.Y.R.R.C.N}$PEPTIDE1,PEPTIDE1,3:R3-20:R3|PEPTIDE1,PEPTIDE1,7:R3-16:R3$$$V2.0), the “hemolysis (%) at 300 μg/mL” value in the data set on human erythrocytes was determined as 4.4 ± 1.1%. Further, the fraction unbound in data set [1] was 0.32. For the same molecule, in data set [2] (ATCC 208821), the MIC was 8 µg/mL (≈ 3.06 µM).

Consider `CC(C)[C@@H]1NC(=O)[C@H](CCCNC(=N)N)NC(=O)[C@H](Cc2ccccc2)NC(=O)[C@@H](NC(=O)[C@H](Cc2c[nH]c3ccccc23)NC(=O)[C@H](CCCNC(=N)N)NC(=O)[C@@H](N)CCCNC(=N)N)CSSC[C@@H](C(=O)N[C@@H](CCCNC(=N)N)C(N)=O)NC(=O)[C@H](CCCCN)NC(=O)[C@H](CCCNC(=N)N)NC(=O)[C@H](Cc2ccc(O)cc2)NC(=O)[C@@H]2CSSC[C@H](NC1=O)C(=O)N[C@@H](Cc1ccc(O)cc1)C(=O)N[C@@H](CCCNC(=N)N)C(=O)NCC(=O)N[C@@H](Cc1ccccc1)C(=O)N2` [polyphemusin-1] (HELM PEPTIDE1{R.R.W.C.F.R.V.C.Y.R.G.F.C.Y.R.K.C.R.[am]}$PEPTIDE1,PEPTIDE1,4:R3-17:R3|PEPTIDE1,PEPTIDE1,8:R3-13:R3$$$V2.0), for which, in data set [1], the fraction unbound was 0.37. This molecule also yielded an MIC in data set [2] (ATCC 208821) of 0.06 µg/mL (≈ 0.0244 µM).

Consider `[H][C@]12CSSC[C@]([H])(NC(=O)[C@]([H])([C@@H](C)CC)NC(=O)CNC(=O)[C@H](CCCNC(=N)N)NC(=O)[C@H](Cc3ccc(O)cc3)NC1=O)C(=O)N[C@@H](Cc1ccc(O)cc1)C(=O)N[C@@H](CCCNC(=N)N)C(=O)N[C@@H](CCCNC(=N)N)C(=O)N[C@H](C(=O)N[C@@H](CCCNC(=N)N)C(N)=O)CSSC[C@H](NC(=O)[C@H](Cc1c[nH]c3ccccc13)NC(=O)[C@@H](N)CCCCN)C(=O)N[C@@H](Cc1ccccc1)C(=O)N[C@@H](CCCNC(=N)N)C(=O)N[C@@H](C(C)C)C(=O)N2` [tachyplesin-1] (HELM PEPTIDE1{K.W.C.F.R.V.C.Y.R.G.I.C.Y.R.R.C.R.[am]}$PEPTIDE1,PEPTIDE1,3:R3-16:R3|PEPTIDE1,PEPTIDE1,7:R3-12:R3$$$V2.0), for which the “hemolysis (%) at 300 μg/mL” value with human erythrocytes came to 27.8 ± 3.9%. Also, the fraction unbound in data set [1] was 0.24. The molecule further gave an MIC in data set [2] (ATCC 208821) of 0.125 µg/mL (≈ 0.0552 µM).

In the case of `CC[C@H](C)[C@H](NC(=O)[C@@H](NC(=O)[C@@H]1CCCN1C(=O)[C@@H](NC(=O)[C@@H]1CCCN1C(=O)[C@H](CCCCN)NC(=O)[C@H](CCCCN)NC(=O)[C@H](CO)NC(=O)CN)C(C)C)[C@@H](C)CC)C(=O)N[C@@H](Cc1ccc(O)cc1)C(=O)N[C@H]1CSSC[C@@H](C(=O)N[C@@H](CCC(N)=O)C(=O)N[C@@H](CCCNC(=N)N)C(=O)N[C@@H](CCSC)C(N)=O)NC(=O)[C@H](CCCCN)NC(=O)CNC(=O)[C@H]([C@@H](C)O)NC(=O)[C@H](CCCNC(=N)N)NC(=O)[C@H](CCCNC(=N)N)NC(=O)[C@H](CC(N)=O)NC1=O` [thanatin], the fraction unbound in data set [1] is 0.08. Also, the MIC in data set [2] (C. neoformans ATCC 208821, n = 4) worked out at 64 µg/mL (≈ 26.3 µM).
